Read-outs that look alike come from different tables or passages of the source.
What was measured:
GRASP55 = GRASP55 (Homo sapiens, UniProt Q9H8Y8); assay: CETSA (immunoblot quantification of non-denatured GRASP55); format: binding; set-up: endogenous in cells; host or cells: HeLa wt cells; settings: 100 nM, 6 h, HeLa wt, vs DMSO
Procedure: Adherent cells were washed in the dish once with DPBS and harvested by Trypsin–EDTA (0.25%, Thermo Fisher Scientific, Waltham, MA, USA, #25,200,056) treatment. After addition of 35 mL DPBS, the cells were pelleted by centrifugation (300 rcf, 5 min, 4 °C), and washed twice by re-suspending and pelleting using 45 mL and 1 mL DPBS, respectively, to remove excess trypsin and for transfer into pre-weighed 2 mL Eppendorf tubes to determine the cell pellet wet weights as quality check after centrifugation (300 rcf, 5 min, 4 °C) and complete removal of the supernatant. […]
After temperature treatment, samples were supplemented with lysis buffer (final concentrations: 0.36 U/µL benzonase, 1.5 mM MgCl2, 1 mM Na3VO4, 10 mM NaF, 2.5 mM Na4P2O7, 0.8% w/v NP-40) for 1 h on ice. […] The total protein concentration of the resulting cell extracts containing the fraction of soluble, non-denatured proteins was determined (Pierce 660 nm Protein Assay, BSA as standard). […] The two (37 °C or 50 °C) x ten (concentrations) x three (replicates) = 60 TPP-CCR samples and two (treatment and control) x ten (temperatures) x three (replicates) = 60 TPP-TR samples were analyzed by LC–MS/MS. GRASP55 was additionally quantified from the TPP-TR samples by immunoblotting as described in the respective section. […]

cathepsin B = molecular target: T1, cathepsin B (Homo sapiens, UniProt P07858); assay: Cathepsin B activity assay in treated HeLa cells; format: cell-based; settings: 24 h, concentration-dependent, HeLa wt
T1 construct: host or cells: HeLa wt cells
Excerpt: Antibodies against β-actin (Sigma-Aldrich, St. Louis, MO, USA, #A5316, clone AC-74, 1:5000), B4GALT1 (Sigma-Aldrich, St. Louis, MO, USA, #HPA010807, 1:200), GAPDH (abcam, Cambridge, UK, #ab8245, 1:5000), GRASP55 (Proteintech, Chicago, IL, USA, #10,598–1-AP, 1:200 for IF and 1:2000 for WB), LAMP1 (Sigma-Aldrich, St. Louis, MO, USA, #L1418, 1:200), LC3B (MBL, Woburn, MA, USA, #M-152–3, 1:200 for IF and Cell Signalling Technology, Danvers, MA, USA, #2775, 1:1000 for WB), SQSTM1 (PROGEN, Heidelberg, Germany, #GP62-C, 1:1000) and TGN46 (Bio-Rad, Hercules, CA, USA, #AHP500GT, 1:200) were used. For WB, IRDye 800- or IRDye 680-conjugated secondary antibodies were purchased from LI-COR Biosciences (Lincoln, NE, USA, #926–68,077, #926–32,211 and #926–32,210). […] The cathepsin activity of treated HeLa cells was quantified using the fluorimetric Cathepsin B Activity Assay Kit (abcam, Cambridge, UK, #ab65300) according to the manufacturer´s instructions and measured with a microplate reader (SynergyMx, BioTek, Winooski, VT, USA).

HeLa wt cells = assay: MTT cell viability assay, HeLa wt; format: cell-based; settings: Homo sapiens
Procedure: Cell viability was measured using the MTT (3-(4,5-dimethylthiazol-2-yl)-2,5-diphenyltetrazolium bromide) assay. HeLa cells were seeded in 96-well plates with a density of 5*10^3 cells/well. […] After the incubation time, 20 µL of a 5 mg/mL MTT stock solution (ROTH, Karlsruhe, Germany, #4022.3) were added to the cells and they were incubated at 37 °C and 5% CO2 in a humidified atmosphere for 30 min. Upon removal of the MTT-containing medium 100 µL DMSO per well were added for extraction of the formazan. Absorbance was measured at 570 nm and 650 nm (reference) with a microplate reader (SynergyMx, BioTek, Winooski, VT, USA). After subtraction of the reference value, the mean of the absorbance of the solvent control was set as 100% and the relative viability was calculated for each sample.
All IC50 values were calculated using GraphPad Prism 7.01.

Compound: CCCCCC1=C/C(=C/c2[nH]c(-c3ccc[nH]3)cc2OC)N=C1C [Prodigiosin, prodigiosin]
- dif GRASP55 (CETSA), melting point difference (GRASP55): 4.5
- cathepsin B activity (cathepsin B): significantly reduced
- IC50 (HeLa wt cells; 24 h, Fig. 1B, read-out: IC50 (24 h)): 685 nM
- IC50 (HeLa wt cells; 24 h, Fig. 5C (independent of Fig. 1B), read-out: IC50 value wt): 547 nM
- IC50 (HeLa wt cells; 72 h, Fig. 1B, read-out: IC50 (72 h)): 77 nM
- IC50 (HeLa wt cells; 72 h, Fig. 5C (independent of Fig. 1B), read-out: IC50 value wt): 63.9 nM

Source: PMC10552397 (Cell Communication and Signaling : CCS, 2023)
